Measured values reported in ChEMBL document CHEMBL1139897, “Design of potent PPARalpha agonists” (Bioorg Med Chem Lett, 2007).

How the values were obtained:
[1] = molecular target: T1, Peroxisome proliferator-activated receptor gamma (Homo sapiens, UniProt P37231)
T1 sequence (P37231 whole entry): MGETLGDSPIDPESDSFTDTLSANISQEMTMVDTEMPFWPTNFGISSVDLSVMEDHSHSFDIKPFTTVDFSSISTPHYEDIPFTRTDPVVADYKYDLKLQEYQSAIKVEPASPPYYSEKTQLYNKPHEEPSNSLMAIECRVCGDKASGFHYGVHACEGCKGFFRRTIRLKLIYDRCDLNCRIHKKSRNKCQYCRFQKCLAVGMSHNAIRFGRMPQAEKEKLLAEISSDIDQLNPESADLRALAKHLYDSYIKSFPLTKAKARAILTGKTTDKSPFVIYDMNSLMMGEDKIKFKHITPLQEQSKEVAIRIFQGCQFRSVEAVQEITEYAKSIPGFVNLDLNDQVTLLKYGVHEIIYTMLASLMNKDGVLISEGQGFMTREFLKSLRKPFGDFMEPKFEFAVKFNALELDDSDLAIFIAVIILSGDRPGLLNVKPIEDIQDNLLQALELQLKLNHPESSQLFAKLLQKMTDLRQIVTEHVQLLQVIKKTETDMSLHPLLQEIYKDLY
Description: Agonist activity at human PPARgamma by transactivation assay

[2] = molecular target: T2, Peroxisome proliferator-activated receptor alpha (Homo sapiens) (UniProt Q07869); assay: Agonist activity at human PPARalpha by transactivation assay relative to WY-14643; assay type: functional
T2 sequence (whole entry): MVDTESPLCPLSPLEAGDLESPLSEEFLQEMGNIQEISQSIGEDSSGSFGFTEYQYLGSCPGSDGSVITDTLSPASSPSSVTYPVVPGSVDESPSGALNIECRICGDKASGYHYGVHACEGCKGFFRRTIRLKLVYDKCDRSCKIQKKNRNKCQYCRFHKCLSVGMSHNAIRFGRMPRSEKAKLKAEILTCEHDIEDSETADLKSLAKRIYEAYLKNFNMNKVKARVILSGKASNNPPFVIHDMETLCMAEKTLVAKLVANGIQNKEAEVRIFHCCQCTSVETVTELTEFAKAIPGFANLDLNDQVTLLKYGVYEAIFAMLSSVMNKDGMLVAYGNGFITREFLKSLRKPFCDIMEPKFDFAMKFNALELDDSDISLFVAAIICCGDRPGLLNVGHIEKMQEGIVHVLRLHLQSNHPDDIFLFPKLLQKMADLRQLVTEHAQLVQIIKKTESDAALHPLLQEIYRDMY

[3] = molecular target: T3, Peroxisome proliferator-activated receptor alpha (Homo sapiens, UniProt Q07869); assay: Agonist activity at human PPARalpha by transactivation assay; assay type: functional
T3 sequence (Q07869 whole entry): T2 sequence (whole entry)

[4] = molecular target: T4, Peroxisome proliferator-activated receptor delta (Homo sapiens, UniProt Q03181); assay: Agonist activity at human PPARdelta by transactivation assay; assay type: functional
T4 sequence (Q03181 whole entry): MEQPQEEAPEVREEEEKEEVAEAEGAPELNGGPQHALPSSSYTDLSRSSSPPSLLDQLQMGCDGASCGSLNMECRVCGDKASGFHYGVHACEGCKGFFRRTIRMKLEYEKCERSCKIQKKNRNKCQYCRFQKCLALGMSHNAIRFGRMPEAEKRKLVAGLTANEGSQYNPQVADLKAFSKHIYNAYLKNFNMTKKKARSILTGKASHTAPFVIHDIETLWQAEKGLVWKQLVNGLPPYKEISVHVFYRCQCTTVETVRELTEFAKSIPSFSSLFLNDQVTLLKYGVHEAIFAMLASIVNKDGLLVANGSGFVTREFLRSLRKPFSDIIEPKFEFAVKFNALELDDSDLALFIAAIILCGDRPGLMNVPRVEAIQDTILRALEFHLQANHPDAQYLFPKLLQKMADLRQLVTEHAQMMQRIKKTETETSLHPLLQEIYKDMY

[5] = Oral bioavailability in rat at 2.5 mg/kg; assay type: ADME, organism-based; details: in vivo
[6] = Cmax in rat at 2.5 mg/kg, po; assay type: ADME, organism-based; parameters: dose 2.5 mg/kg, route oral; details: in vivo
[7] = Half life in rat at 2.5 mg/kg, po; assay type: ADME, organism-based; parameters: dose 2.5 mg/kg, route oral; details: in vivo

SMILES	EC50 [1]	Activity [2]	EC50 [3]	EC50 [4]	bioavailability [5]	Cmax [6]	half-life [7]
CCO[C@@H](Cc1ccc(OC/C=C/c2cc(CCc3ccccc3)cc(CCc3ccccc3)c2)cc1)C(=O)O	5100 nM	118%	30 nM				
CCOc1cc(/C=C/COc2ccc(C[C@H](OCC)C(=O)O)cc2)cc(OCC)c1	200 nM	197%	20 nM	7900 nM	86%	6160 ng/mL	2.17 h
CCO[C@@H](Cc1ccc(OC/C=C/c2cc(OC(=O)c3ccccc3)cc(OC(=O)c3ccccc3)c2)cc1)C(=O)O	190 nM	121%	50 nM				
CCO[C@@H](Cc1ccc(OC/C=C/c2cc(C(F)(F)F)cc(C(F)(F)F)c2)cc1)C(=O)O	400 nM	195%	20 nM	1400 nM			
CCO[C@@H](Cc1ccc(OC/C=C/c2cc(OC3CCCC3)cc(OC3CCCC3)c2)cc1)C(=O)O	300 nM	135%	20 nM	15000 nM			
CCO[C@@H](Cc1ccc(OC/C=C/c2cc(OC)cc(OC)c2)cc1)C(=O)O		186%		13000 nM			
CCO[C@@H](Cc1ccc(OC/C=C(\C)c2ccc(-c3ccccc3)cc2)cc1)C(=O)O		158%	500 nM				
CCO[C@@H](Cc1ccc(OC/C=C/c2cc(OC(C)C)cc(OC(C)C)c2)cc1)C(=O)O	80 nM	207%	4 nM	6000 nM	95%	1840 ng/mL	2.42 h
CCO[C@@H](Cc1ccc(OC/C=C/c2cc(-c3ccc(C(C)(C)C)cc3)cc(-c3ccc(C(C)(C)C)cc3)c2)cc1)C(=O)O	1000 nM	110%	14000 nM				
CCO[C@@H](Cc1ccc(OC/C=C/c2cc(-c3ccccc3)cc(-c3ccccc3)c2)cc1)C(=O)O	200 nM	30%	20 nM	4000 nM			

More lines, main results first:

EC50 [1]	Activity [2]	EC50 [3]	EC50 [4]	SMILES	bioavailability [5]	Cmax [6]	half-life [7]
8000 nM	169%	1600 nM	18000 nM	CCO[C@@H](Cc1ccc(OC/C=C/c2ccccc2)cc1)C(=O)O			
3100 nM	108%	500 nM		CCO[C@@H](Cc1ccc(OC/C=C/c2cc(C#Cc3ccccc3)cc(C#Cc3ccccc3)c2)cc1)C(=O)O			
4100 nM	121%	300 nM	20000 nM	CCO[C@@H](Cc1ccc(OC/C=C/c2cc(Br)cc(Br)c2)cc1)C(=O)O			
3000 nM	66%	90 nM		CCO[C@@H](Cc1ccc(OC/C=C/c2cc(/C=C/c3ccccc3)cc(/C=C/c3ccccc3)c2)cc1)C(=O)O			
800 nM	149%	2 nM	4000 nM	CCO[C@@H](Cc1ccc(OC/C=C/c2cc(OCC(F)(F)F)cc(OCC(F)(F)F)c2)cc1)C(=O)O			
